Some results are limits rather than exact numbers.

The test deals with T1, human-derived receptor TLR7 (Homo sapiens, UniProt Q9NYK1).
T1 construct: host or cells: HEK-Blue hTLR7 cells (HEK293-derived reporter line)
T1 sequence (Q9NYK1 27-1049): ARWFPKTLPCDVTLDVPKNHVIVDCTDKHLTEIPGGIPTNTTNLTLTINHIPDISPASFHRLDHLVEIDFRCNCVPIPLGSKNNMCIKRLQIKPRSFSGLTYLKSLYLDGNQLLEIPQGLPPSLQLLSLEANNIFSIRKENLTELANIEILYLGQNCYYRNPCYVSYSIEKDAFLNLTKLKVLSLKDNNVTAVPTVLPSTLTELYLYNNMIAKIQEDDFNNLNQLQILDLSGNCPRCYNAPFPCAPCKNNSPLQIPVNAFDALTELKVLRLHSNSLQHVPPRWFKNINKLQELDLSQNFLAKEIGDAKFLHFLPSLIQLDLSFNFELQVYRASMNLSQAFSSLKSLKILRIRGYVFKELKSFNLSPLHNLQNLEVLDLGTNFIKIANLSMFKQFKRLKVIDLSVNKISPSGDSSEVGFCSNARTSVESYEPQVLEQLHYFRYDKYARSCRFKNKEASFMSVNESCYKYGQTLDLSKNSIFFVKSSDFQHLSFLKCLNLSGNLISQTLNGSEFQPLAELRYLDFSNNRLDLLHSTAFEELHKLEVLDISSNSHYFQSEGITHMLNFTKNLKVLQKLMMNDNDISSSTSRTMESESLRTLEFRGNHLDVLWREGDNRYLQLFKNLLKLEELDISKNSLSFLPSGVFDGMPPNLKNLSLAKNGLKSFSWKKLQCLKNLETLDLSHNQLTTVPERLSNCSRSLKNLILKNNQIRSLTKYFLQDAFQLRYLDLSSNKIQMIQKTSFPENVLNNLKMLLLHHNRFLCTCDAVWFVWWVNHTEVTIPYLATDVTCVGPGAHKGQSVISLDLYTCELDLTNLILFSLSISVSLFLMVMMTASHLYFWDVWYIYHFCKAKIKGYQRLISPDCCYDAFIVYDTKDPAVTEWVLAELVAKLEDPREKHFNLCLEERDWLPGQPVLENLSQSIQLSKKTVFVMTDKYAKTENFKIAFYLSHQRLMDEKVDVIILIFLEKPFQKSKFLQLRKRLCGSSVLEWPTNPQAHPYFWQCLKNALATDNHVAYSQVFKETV
The experiment in a line: Assay on agonistic activity for human-derived receptor TLR7 (HEK-Blue hTLR7 cells, HEK-Blue Detection Medium). The class given is cell-based. Conditions: 16 h incubation, absorbance at 655 nm, read-out: EC50. The procedure:
HEK-Blue™ hTLR7 cells (InvivoGen, hkb-htlr7) were cultured in a DMEM complete medium (Gibco, 12100) containing 10% FBS (Invitrogen, 10099141), 1% P/S (Invitrogen, 15140122), 10 μg/mL Blasticidin (InvivoGen, ant-bl-1), 100 μg/mL Zeocin (InvivoGen, ant-zn-1), and 100 μg/mL Normocin (InvivoGen, ant-nr-1). The cells were cultured in an incubator at 37° C. with 5% CO2. When HEK-Blue™ hTLR7 cells reached a growth density of 70%-80%, cell passage was needed.
The agonistic activity for the human-derived receptor TLR7 by HEK-Blue™ hTLR7 cells was assayed by HEK-Blue™ Detection Medium (InvivoGen, hd-det2). First, a bag of HEK-Blue™ Detection Medium powder was dissolved in 50 mL of ultra-pure sterile water for complete dissolution, and then the dissolved medium was filtered into a new 50 mL centrifuge tube through a 0.22 μm filter. Finally, antibiotics were added into the filtered detection medium until the final concentration was 1% for P/S and 100 μg/mL for Normocin. HEK-Blue™ Detection Medium was pre-heated to 37° C. in advance on the day of the assay on the activity for the TLR7 receptor, and the temperature was always maintained at 37° C.
The compound powder was dissolved in 100% DMSO (Sigma, D2650-100ML) to obtain a 10 mM stock solution, and the compound was completely dissolved by shaking with an oscillator. The stock solution of the compound was subjected to a 5-fold dilution to 2 mM with 100% DMSO. This was followed by a 3-fold serial dilution for a total of 8 concentration gradients. Then, each of the concentration gradients was subjected to a 20-fold dilution to 100 μM, 33.3 μM, 11.1 μM, 3.7 μM, 1.23 μM, […], 0.114 μM, and 0.05 μM using HEK-Blue™ Detection Medium. 20 μL of each of the dilutions was added to a 96-well cell culture plate (Corning, 3599).
On the day of the assay on the agonistic activity for the human-detived receptor TLR7, HEK-Blue™ hTLR7 cells has a growth density of 70%-80%, and the cell medium was removed. 1 mL of cell dissociation buffer (Gibco, 13151-014) was added to each 100 mm cell culture dish, and the cells were incubated in an incubator at 37° C. for 5 min. The cells were pipetted using a DMEM cell medium to obtain a single cell suspension, which was then centrifuged at 1000 rpm for 10 min to collect the cell pellet. The cell pellet was resuspended with HEK-Blue™ Detection Medium pre heated to 37° C. The cells were counted and diluted to 220,000 cells/mL. Finally, 180 μL of cell suspension (40,000 cells/well) was added to each well of the 96-well cell culture plate to which the compound had been added, and the cell suspension was mixed with the compound using a pipettor. Final concentrations of the compound were 10 μM, 3.3 μM, 1.1 μM, 0.37 μM, 0.12 μM, 0.04 μM, 0.01 μM, and 0.005 μM. After incubation in an incubator at 37° C. for 16 h, the absorbance was read at 655 nm using an M5e microplate reader (MD, USA).
The EC50 of the compound was calculated using the software GraphPad Prism (GraphPad Software, USA). The background reading of the detection culture was subtracted from the absorbance readings at 655 nm of all wells of the 96-well plate, the ratio of each well to the negative control well (the well without the compound) was calculated, and then the percentage of the ratio of each well to the positive control well (the well treated with 10 μM positive compound), i.e., the percentage of activity, was calculated. Finally, the sigmoidal dose-response (variable slope) curve between the percentage of activity and the concentration of the compound was calculated using the software GraphPad Prism to calculate the EC50 of the compound. […]
On to `Nc1nc2ccccc2c2c1nc(SCCC(F)(F)F)n2Cc1ccc(CN2CCCC2)cc1` [Example 181], for which the half-maximal effective concentration (EC50) was below 50 nM.

In the case of `CCCCOc1nc(N)c2c(n1)CN(Cc1ccc(C(=O)N3CCCC3)cc1)C(=O)N2` [Example 50, 8-amino-6-butoxy-3-(4-(pyrrolidin-1-ylcarbonyl)benzyl)-3,4-dihydropyrimido[5,4-d]pyrimidin-2(1H)-one], the 50% effective concentration (EC50) was below 50 nM.

As for `C=CCCSc1nc2c(N)nc3ccccc3c2n1Cc1ccc(CN2CCCC2)cc1` [Example 165], the 50% effective concentration (EC50) was 50 to 100 nM.

`COc1cc(CN2C[C@H]3CN(C)C[C@H]3C2)ccc1Cn1c(SC)nc2c(N)nc3ccccc3c21` [Example 239]: the concentration for a half-maximal effect (EC50) lay within 50 to 100 nM.

`C=CCSc1nc2c(N)nc3ccccc3c2n1Cc1ccc(CN2CC[C@H](F)C2)cc1` [Example 210]: the concentration giving a half-maximal response (EC50) fell in the range of 50 to 100 nM.

With `N#CCCSc1nc2c(N)nc3ccccc3c2n1Cc1ccc(CN2CCCC2)cc1` [Example 177], the EC50 lay in the range of 50 to 100 nM.

Consider `CCSc1nc2c(N)nc3ccccc3c2n1Cc1ccc(CN2CCCC2)cc1` [Example 156], for which the EC50 was below 50 nM.

For `CCSc1nc2c(N)nc3ccccc3c2n1Cc1ccc(CNC(C)C)cc1` [Example 191], the EC50 is below 50 nM.

Turning to `CCSc1nc2c(N)nc3ccccc3c2n1Cc1ccc(CN2CCNCC2)cc1` [Example 214], the EC50 was in the range of 50 to 100 nM.

In the case of `Nc1nc2ccccc2c2c1nc(SCC(F)F)n2Cc1ccc(CN2CCCC2)cc1` [Example 179], the EC50 is below 50 nM.

`COc1cc(OCCN(C)C)ccc1Cn1c(SC)nc2c(N)nc3ccccc3c21` [Example 248]: the EC50 lay in the range of 50 to 100 nM.

Turning to `CCCCOc1nc(N)c2c(n1)N(Cc1ccc(Oc3ccc(CNC)cc3)cc1)CC(=O)N2` [Example 252, 4-amino-2-butoxy-8-(4-(4-((methylamino)methyl)phenoxy)benzyl)-7,8-dihydropteridin-6(5H)-one], the EC50 was below 50 nM.

Turning to `CCCSc1nc2c(N)nc3ccccc3c2n1Cc1ccc(CN2CCCC2)cc1` [Example 159], the EC50 was below 50 nM.

As to `Nc1nc2ccccc2c2c1nc(SCC1CC1)n2Cc1ccc(CN2CCCC2)cc1` [Example 163], the EC50 was below 50 nM.

Consider `COc1cc(CN2CCCC2)ccc1Cn1c(SC)nc2c(N)nc3ccccc3c21` [Example 233], for which the EC50 is below 50 nM.

Take `Nc1nc2ccccc2c2c1nc(SCCF)n2Cc1ccc(CN2CCCC2)cc1` [Example 178]: the EC50 fell in the range of 50 to 100 nM.

Regarding `CSc1nc2c(N)nc3ccccc3c2n1Cc1ccc(CN2CCNCC2)s1` [Example 220], the EC50 lay within 50 to 100 nM.

As for `CSc1nc2c(N)nc3ccccc3c2n1Cc1ccc(CNC(C)C)cc1` [Example 188], the EC50 fell in the range of 50 to 100 nM.

With `CCCCOc1nc(N)c2[nH]c(=O)n(Cc3ccc(CN4CCC(N)C4)s3)c2n1` (stereo not shown) [Example 49, 6-amino-9-((5-((3-aminopyrrolidin-1-yl)methyl)thien-2-yl)methyl)-2-butoxy-7,9-dihydro-8H-purin-8-one], the EC50 was below 50 nM.

With `C=CCSc1nc2c(N)nc3ccccc3c2n1Cc1ccc(CN2CCCC2)cc1` [Example 166], the EC50 was below 50 nM.

With `CCCCOc1nc(N)c2c(n1)CN(Cc1ccc(CN3CCCC3)c(C)c1)C(=O)N2` [Example 66], the concentration for a half-maximal effect (EC50) lay within 50 to 100 nM.

For the compound `CSc1nc2c(N)nc3ccccc3c2n1Cc1ccc(CN2CC(O)C2)cc1` [Example 206], the 50% effective concentration (EC50) was 50 to 100 nM.

For the compound `CCCCOc1nc(N)c2[nH]c(=O)n(Cc3ccc(CN4CCN(C(=O)CN)CC4)s3)c2n1` [Example 45, 6-amino-2-butoxy-9-((5-((4-glycylpiperazin-1-yl)methyl)thien-2-yl)methyl)-7,9-dihydro-8H-purin-8-one], the EC50 is below 50 nM.

Turning to `COc1cc(CN2CC(O)C2)ccc1Cn1c(SC)nc2c(N)nc3ccccc3c21` [Example 244], the EC50 was 50 to 100 nM.

On to `CCSc1nc2c(N)nc3ccccc3c2n1Cc1ccc(CN(C)C)cc1` [Example 190], for which the 50% effective concentration (EC50) lay in the range of 50 to 100 nM.

As for `CCN(CC)Cc1ccc(Cn2c(=O)[nH]c3c(N)nc4ccccc4c32)cc1C` [Example 113], the concentration for a half-maximal effect (EC50) is 50 to 100 nM.

For `CCCCOc1nc(N)c2[nH]c(=O)n(Cc3ccc(CN4CCCC4)s3)c2n1` [Example 43, 6-amino-2-butoxy-9-((5-(pyrrolidin-1-ylmethyl)thien-2-yl)methyl)-7,9-dihydro-8H-purin-8-one], the half-maximal effective concentration (EC50) was below 50 nM.

`CCCCOc1nc(N)c2c(n1)CN(Cc1ccc(Cn3ccnc3)c(C)c1)C(=O)N2` [Example 76]: the 50% effective concentration (EC50) was 50 to 100 nM.

For the compound `CSc1nc2c(N)nc3ccccc3c2n1Cc1ccc(CN2CCNCC2)cc1` [Example 213], the EC50 fell in the range of 50 to 100 nM.

For the compound `COc1cc(CN2CC[C@H](O)C2)ccc1Cn1c(SC)nc2c(N)nc3ccccc3c21` [Example 245], the concentration for a half-maximal effect (EC50) fell in the range of 50 to 100 nM.

For the compound `CCCCOc1nc(N)c2[nH]c(=O)n(Cc3cccc(CN4CCCC4=O)c3)c2n1` [Example 42, 6-amino-2-butoxy-9-(3-((2-oxopyrrolidin-1-yl)methyl)benzyl)-7,9-dihydro-8H-purin-8-one], the EC50 is below 50 nM.

Turning to `CCCCOc1nc(N)c2c(n1)CN(Cc1ccc(C)c(CN3CCCC3)c1)C(=O)N2` [Example 78], the EC50 was below 50 nM.

Consider `CCCCOc1nc(N)c2[nH]c(=O)n(Cc3ccc(CN4CCC(O)C4)s3)c2n1` (stereo not shown) [Example 44, 6-amino-2-butoxy-9-((5-((3-hydroxypyrrolidin-1-yl)methyl)thien-2-yl)methyl)-7,9-dihydro-8H-purin-8-one], for which the 50% effective concentration (EC50) is below 50 nM.

With `COc1cc(CN2CCNCC2)ccc1Cn1c(SC)nc2c(N)nc3ccccc3c21` [Example 238], the concentration giving a half-maximal response (EC50) was 50 to 100 nM.

In the case of `C=CCSc1nc2c(N)nc3ccccc3c2n1Cc1ccc(CN2CCNCC2)cc1` [Example 215], the EC50 is below 50 nM.

For the compound `COc1cc(CN2CCN(C)CC2)ccc1Cn1c(SC)nc2c(N)nc3ccccc3c21` [Example 247], the 50% effective concentration (EC50) is 50 to 100 nM.

Regarding `CSc1nc2c(N)nc3ccccc3c2n1Cc1ccc(-c2cnn(CCNC3CCC3)c2)cc1` [Example 196], the concentration for a half-maximal effect (EC50) was 50 to 100 nM.

The EC50 is the concentration needed to bring the measured effect to its halfway point.

These data come from patent US20240150346A1, “CLASS OF HETEROAROMATIC COMPOUND, PREPARATION METHOD THEREFOR AND USE THEREOF” (INNOVSTONE THERAPEUTICS LIMITED, priority 2021, published 2024).
